Assay results: patent US6545033B1, “Fused 1-(2,6-dichloro-4-trifluoromethylphenyl)-pyrazoles, the synthesis thereof and the use thereof as pesticides” (3-Dimensional Pharmaceuticals, Inc., priority 1999, dated 2003)

Biological target: Mouse Brain GABA Receptors
Test: In vitro assay of binding to mouse brain GABA receptors (3H-EBOB displacement, mouse brain membranes)
Conditions: displacement of 5.2 nM 3H-EBOB, about 45 min at about 24° C.
Experimental: Mouse brains were obtained from carbon dioxide-asphyxiated Swiss-Webster mice, washed with phosphate-buffered saline, and used either fresh or after storage at −80° C. for up to 10 months. Unless specified, all preparation steps were performed at 0-4° C. For each preparation, 20 brains were suspended in about 40 mL of 0.32 M sucrose and homogenized for about 2 minutes, using a Tissumizer™ homogenizer equipped with a SDT-100EN probe (available from Tekmar-Dohrmann, Cincinnati, Ohio) running at 50% of its maximum speed. The extract was centrifuged for about 5 min at about 1000×g to pellet intact brain tissue. The supernatant was retained and the pellet washed with an additional 40 mL of 0.32 M sucrose and centrifuged at 1000×g for about 5 minutes. The 1000×g supernatants were combined and centrifuged at about 10,000×g for about 20 min to pellet membranes. The 10,000×g supernatant was discarded and the pellet was resuspended in about 20 mL of water containing 1 mM EDTA. The sample was dialyzed two times for about 3 hours each against about 3 L of water. The sample was then centrifuged at about 25,000×g for about 30 min to pellet the membranes. After centrifugation, the supernatant was discarded and the wet pellet recovered. The protein concentration of the pellet was determined by the Bio-Rad Protein Assay (available from Bio-Rad Laboratories, Hercules, Calif.) using bovine serum albumin as a standard. The membranes were aliquoted and stored at −80° C. for up to 6 months before use.
Mouse brain membranes were prepared as described above from dissected mouse brains. Test compounds were dissolved in dimethylsulfoxide (DMSO) at concentrations ranging from about 2 nM to about 100 mM. About 1 μL of a dissolved test compound was dispensed into a well of a 96-well polystyrene plate. About 100 μL of ice cold assay buffer (10 mM phosphate, 300 mM NaCl, pH 7.5) containing 5.2 nM 4′-Ethynyl-4-n-[2,3-^3H2]propylbicycloorthobenzoate (^3H-EBOB, 38 Ci/mmol, available from NEN Life Science Products, Boston, Mass.) was added to the well, followed by about 100 μL of ice cold assay buffer containing about 0.25-0.5 mg/mL mouse brain membranes. Control wells were prepared the same way except that the mouse brain membranes were omitted from the “negative” wells, and the test compounds were omitted from the “positive” wells. The samples were incubated for about 45 min at about 24° C. and then filtered on a 0.1% (w/v) polyethylenimine-soaked glass fiber Filtermat A (available from EG&G Wallac Inc., Gaithersburg, Md.) followed by four 100 mL rinses of cold assay buffer using a Harvester 96® cell harvester (available from Tomtec, Orange, Conn.). The filtermat was air dried and radioactivity bound to the filtermat was detected with either a 1450 MicroBeta® Trilux scintillation counter (available from EG&G Wallac Inc.) or a Topcount NXT™ scintillation counter (available from Packard Instrument Co., Meriden, Conn.) using standard methods.
Specific binding was considered to be the difference between total ^3H bound to the mouse brain membranes in the absence of any inhibitors and nonspecific ^3H bound to the mouse brain membranes upon the addition of 5 μM unlabeled EBOB. The average radioactivity contained in the “negative” wells was subtracted from each of the assay wells. […] Compounds that displaced ^3H-EBOB specifically bound to the mouse brain membranes were tested at 24-48 different final concentrations, varying from about 1 nM to about 125 μM, in order to determine the concentration at which 50% of the maximum inhibition due to the addition of that compound was observed (IC50). […]

SMILES	IC50 [nM]
FC(F)(F)c1cc(Cl)c(-n2cc3c(n2)CSC3)c(Cl)c1 [Compound 3, 2-[2,6-Dichloro-4-(trifluoromethyl)phenyl]-4,6-dihydrothieno-[3,4-c]pyrazole]	2000
FC(F)(F)c1cc(Cl)c(-n2cc3c(n2)CCC3)c(Cl)c1 [Compound 11, 2-[2,6-Dichloro-4-(trifluoromethyl)phenyl]-2,4,5,6-tetrahydrocyclopenta[c]pyrazole]	1600
FC(F)(F)c1cc(Cl)c(-n2cc3c(n2)CCCCC3)c(Cl)c1 [Compound 15, 2-[2,6-Dichloro-4-(trifluoromethyl)phenyl]-2,4,5,6,7,8-hexahydrocyclohepta[c]pyrazole]	30000
